pIC50: −log10 of the molar value. Like-named read-outs stand apart in the source and are kept apart here.
Tests used:
MV-4-11 cells = experiment: AML cell viability assay (RealTime-Glo); assay type: cell-based; settings: Homo sapiens, read-out: Cell viability classification
CK1α = CK1α (Homo sapiens, UniProt P48729+Q96SW2); experiment: CK1α degradation, flow cytometry in MV4-11 cells; assay type: cell-based; set-up: CK1α levels were determined in MV-4-11 cells using Jess (Protein Simple); host or cells: MV-4-11; settings: % reduction of CK1α compared to DMSO, MV4-11 cells at 316 nM for 16 hours, read-out: CK1α degradation classification
Protocol: MV-4-11 cells were obtained from ATCC and grown in IMDM supplemented with 10% FBS. The cells were maintained at 37° C. under 5% CO2.
Compounds of the present disclosure were added to cells (final DMSO concentration of 0.5%) and incubated for 16 hours. CK1α level was determined in MV4-11 cells using flow cytometry (Luminex, Guava EasyCyte Plus). Briefly, cells were prepared with sequential 10% formalin and 70% methanol fixation. […] GuavaSoft Incyte software was used to analyse the flow cytometry data. Protein levels relative to DMSO are calculated for CK1α.
The efficacy of CK1α degradation of other part of compounds of the present disclosure was determined by treating MV4-11 cells at […] (Final DMSO concentration of 0.5%) for 16 hours. Protein levels relative to DMSO are calculated for CK1α.
Protein levels relative to DMSO are calculated for CK1α.

[1] = MV4-11, IC50 class, MV-4-11 cells, RealTime-Glo after 44 hrs of treatment (TABLE 3)

CK1α, sequence (P48729 whole entry): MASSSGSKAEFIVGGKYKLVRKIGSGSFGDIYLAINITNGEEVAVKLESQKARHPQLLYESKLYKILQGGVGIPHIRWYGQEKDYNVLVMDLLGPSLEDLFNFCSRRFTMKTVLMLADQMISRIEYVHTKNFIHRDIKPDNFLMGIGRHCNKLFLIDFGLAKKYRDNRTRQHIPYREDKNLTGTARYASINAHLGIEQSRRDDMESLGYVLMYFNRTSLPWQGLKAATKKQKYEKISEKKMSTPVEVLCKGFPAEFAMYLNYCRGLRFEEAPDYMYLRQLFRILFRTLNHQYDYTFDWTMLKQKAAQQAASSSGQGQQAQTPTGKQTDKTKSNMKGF
CK1α, sequence (Q96SW2 whole entry): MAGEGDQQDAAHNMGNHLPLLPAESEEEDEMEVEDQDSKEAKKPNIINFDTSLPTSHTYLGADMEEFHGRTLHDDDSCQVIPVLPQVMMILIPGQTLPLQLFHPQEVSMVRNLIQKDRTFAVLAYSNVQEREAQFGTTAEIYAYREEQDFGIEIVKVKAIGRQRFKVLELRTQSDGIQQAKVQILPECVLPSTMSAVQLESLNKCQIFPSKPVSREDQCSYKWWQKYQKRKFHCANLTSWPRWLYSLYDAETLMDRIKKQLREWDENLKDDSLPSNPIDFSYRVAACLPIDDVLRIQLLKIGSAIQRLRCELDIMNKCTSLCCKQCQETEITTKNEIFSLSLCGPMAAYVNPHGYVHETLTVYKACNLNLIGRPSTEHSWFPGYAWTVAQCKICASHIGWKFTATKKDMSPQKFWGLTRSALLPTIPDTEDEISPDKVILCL
CK1α, sequence (Q16531 whole entry partner): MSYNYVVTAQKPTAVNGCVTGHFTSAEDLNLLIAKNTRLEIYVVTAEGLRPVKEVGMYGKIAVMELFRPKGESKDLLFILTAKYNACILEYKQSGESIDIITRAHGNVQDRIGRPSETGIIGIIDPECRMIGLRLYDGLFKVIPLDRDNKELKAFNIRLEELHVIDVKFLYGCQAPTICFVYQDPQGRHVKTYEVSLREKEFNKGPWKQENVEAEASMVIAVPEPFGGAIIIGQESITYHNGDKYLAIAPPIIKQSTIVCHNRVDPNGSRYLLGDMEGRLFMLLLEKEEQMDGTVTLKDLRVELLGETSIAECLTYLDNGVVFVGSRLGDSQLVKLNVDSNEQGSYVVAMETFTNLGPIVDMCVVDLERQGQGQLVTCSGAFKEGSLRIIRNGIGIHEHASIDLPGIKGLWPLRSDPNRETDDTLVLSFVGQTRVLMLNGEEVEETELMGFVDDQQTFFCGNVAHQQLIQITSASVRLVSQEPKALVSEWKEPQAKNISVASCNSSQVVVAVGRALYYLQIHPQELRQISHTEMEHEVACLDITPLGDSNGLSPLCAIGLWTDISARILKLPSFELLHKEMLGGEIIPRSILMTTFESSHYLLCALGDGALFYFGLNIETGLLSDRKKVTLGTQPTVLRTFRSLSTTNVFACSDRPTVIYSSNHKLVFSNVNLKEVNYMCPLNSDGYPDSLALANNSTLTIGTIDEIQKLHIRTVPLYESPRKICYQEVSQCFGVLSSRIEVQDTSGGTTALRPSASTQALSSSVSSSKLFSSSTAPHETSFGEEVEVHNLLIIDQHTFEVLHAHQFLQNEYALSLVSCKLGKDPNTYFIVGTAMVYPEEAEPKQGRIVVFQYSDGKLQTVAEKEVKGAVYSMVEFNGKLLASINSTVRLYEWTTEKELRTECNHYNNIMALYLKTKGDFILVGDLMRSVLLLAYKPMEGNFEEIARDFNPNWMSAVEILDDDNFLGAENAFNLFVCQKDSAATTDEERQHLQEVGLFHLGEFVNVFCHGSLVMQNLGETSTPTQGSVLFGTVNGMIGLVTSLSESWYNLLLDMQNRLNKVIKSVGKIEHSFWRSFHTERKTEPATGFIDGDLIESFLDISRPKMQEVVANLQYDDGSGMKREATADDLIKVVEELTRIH

Row | SMILES | pIC50 (MV-4-11 cells; [1]) | Dmax at 0.316 µM (CK1α) [%] | pIC50 (MV-4-11 cells; MV4-11, 44 h)
1 | O=C1CCC(N2Cc3c(cccc3N(CC3CC3)[C@H]3CC[C@H](NC4CC(F)(F)C4)CC3)C2=O)C(=O)N1 (stereo partly shown) [Compound 532, 3-(4-((cyclopropylmethyl)((lr,4r)-4-((3,3-difluorocyclobutyl)amino)cyclohexyl)amino)-1-oxoisoindolin-2-yl)piperidine-2,6-dione] | > 7.00 | > 75 | 
2 | O=C1CCC(N2Cc3c(cccc3N(CC3CC3)[C@H]3CC[C@H](NC4COC4)CC3)C2=O)C(=O)N1 (stereo partly shown) [Compound 534, 3-(4-((cyclopropylmethyl)((1r,4r)-4-(oxetan-3-ylamino)cyclohexyl)amino)-1-oxoisoindolin-2-yl)piperidine-2,6-dione] | > 7.00 | > 75 | 
3 | N[C@@H]1CC[C@@H](N(CC2CC2)c2cccc3c2CN(C2CCC(=O)NC2=O)C3=O)C[C@H]1F (stereo partly drawn) [Compound 535, 3-(4-(((1R,3R,4R)-4-amino-3-fluorocyclohexyl)(cyclopropylmethyl)amino)-1-oxoisoindolin-2-yl)piperidine-2,6-dione; formic acid] | > 7.00 | 50 to 75 | 
4 | O=C1CCC(N2Cc3c(cccc3N(CCC3CC3)[C@H]3CC[C@H](NCC(F)F)CC3)C2=O)C(=O)N1 (stereo partly shown) [Compound 539, 3-{4-[(2-cyclopropylethyl)[(1s,4s)-4-[(2,2-difluoroethyl)amino]cyclohexyl]amino]-1-oxo-3H-isoindol-2-yl}piperidine-2,6-dione] | 6.00 to 7.00 | 50 to 75 | 
5 | O=C1CCC(N2Cc3c(cccc3N(CCC3CC3)[C@H]3CC[C@@H](NCC(F)F)CC3)C2=O)C(=O)N1 (stereo partly shown) [Compound 539A, 3-{4-[(2-cyclopropylethyl)[(1r,4r)-4-[(2,2-difluoroethyl)amino]cyclohexyl]amino]-1-oxo-3H-isoindol-2-yl}piperidine-2,6-dione] | > 7.00 | > 75 | 
6 | O=C1CCC(N2Cc3c(cccc3N(CCC3CC3)[C@H]3CC[C@H](NC(CF)CF)CC3)C2=O)C(=O)N1 (stereo partly shown) [Compound 540, 3-{4-[(2-cyclopropylethyl)[(1r,4r)-4-[(1,3-difluoropropan-2-yl)amino]cyclohexyl]amino]-1-oxo-3H-isoindol-2-yl}piperidine-2,6-dione] |  | 50 to 75 | 6.00 to 7.00
7 | COC(C)(C)CN[C@H]1CC[C@H](N(CCC2CC2)c2cccc3c2CN(C2CCC(=O)NC2=O)C3=O)CC1 (stereo partly shown) [Compound 541, 3-(4-((2-cyclopropylethyl)((1r,4r)-4-((2-methoxy-2-methylpropyl)amino)cyclohexyl)amino)-1-oxoisoindolin-2-yl)piperidine-2,6-dione] | > 7.00 | > 75 | 

More lines, main results first:

Row | pIC50 (MV-4-11 cells; [1]) | Dmax at 0.316 µM (CK1α) [%] | SMILES | pIC50 (MV-4-11 cells; MV4-11, 44 h)
8 | 6.00 to 7.00 | 50 to 75 | NC[C@]1(O)CC[C@H](N(CCC2CC2)c2cccc3c2CN(C2CCC(=O)NC2=O)C3=O)CC1 (stereo partly shown) [Compound 523, 3-(4-(((1r,4r)-4-(aminomethyl)-4-hydroxycyclohexyl)(2-cyclopropylethyl)amino)-1-oxoisoindolin-2-yl)piperidine-2,6-dione] | 
9 | < 6.00 | < 50 | NC[C@]1(O)CC[C@H](N(CCCC(F)(F)F)c2cccc3c2CN(C2CCC(=O)NC2=O)C3=O)CC1 (stereo partly shown) [Compound 530, 3-(4-(((1r,4r)-4-(aminomethyl)-4-hydroxycyclohexyl)(4,4,4-trifluorobutyl)amino)-1-oxoisoindolin-2-yl)piperidine-2,6-dione] | 
10 | > 7.00 | > 75 | O=C1CCC(N2Cc3c(cccc3N(CC3CC3)[C@H]3CC[C@H](NCCC(F)(F)F)CC3)C2=O)C(=O)N1 (stereo partly shown) [Compound 533, 3-(4-((cyclopropylmethyl)((1r,4r)-4-((3,3,3-trifluoropropyl)amino)cyclohexyl)amino)-1-oxoisoindolin-2-yl)piperidine-2,6-dione] | 
11 | 6.00 to 7.00 | < 50 | NC[C@]1(O)CC[C@H](N(CC2CC2)c2cccc3c2CN(C2CCC(=O)NC2=O)C3=O)CC1 (stereo partly shown) [Compound 536, 3-(4-(((1r,4r)-4-(aminomethyl)-4-hydroxycyclohexyl)(cyclopropylmethyl)amino)-1-oxoisoindolin-2-yl)piperidine-2,6-dione] | 

From US20250188069A1, “COMPOUNDS AND METHODS FOR DEGRADING CASEIN KINASE 1 ALPHA” (PIN THERAPEUTICS, INC., priority 2022, published 2025)
